Reference: patent US20260263433A1, “TETRAZOLIUM AND FORMAZAN COMPOUNDS AND METHODS OF MAKING AND USING THE SAME” (ARIZONA BOARD OF REGENTS ON BEHALF OF THE UNIVERSITY OF …, priority 2022, published 2026)

Assays:
[1] = Reduction of tetrazolium salts by cyclic voltammetry in buffered aqueous solution; type: physicochemical; details: 50 mM PBS pH 7.4, 25° C., K3[Fe(CN)6] reference, irreversible reduction
Experimental: The reduction of all the tetrazolium salts was investigated by cyclic voltammetry in buffered aqueous solutions (50 mM phosphate buffered saline solution, pH 7.4, K3[Fe(CN)6] as reference E0=0.430 V vs. NHE, 25° C.). Each compound presents an irreversible reduction at a potential that varies considerably depending on the identity of the aryl substituents on the tetrazolium core. Although the peaks are rather broad and likely susceptible to shifts depending on the specific experimental conditions, the peak potentials (Table 1, referenced to NHE) of some of these tetrazolium compounds indicate that they are reduced outside the biologically relevant window. […] On the other hand, the fact that the tetrazolium compounds are harder to reduce relative to MTT (with the exception of the benzothiazole derivative 1b) makes them well suited for intracellular activation in the reducing microenvironment of malignant cells. Compounds 2b, 4b, 6b and 7b are likely to be reduced intracellularly to the formazan species.

A2780 (Ovary) = assay: Antiproliferative activity, resazurin readout, A2780; type: cell-based, human; details: for IC50: 72 h incubation, 0.032-100 μM, mean ± SDM, n = 3
Experimental: (§1) Once the stability data and the information on the reduction and iron binding of the new cohort of tetrazolium salts had been obtained, the antiproliferative activity of the new cohort was assessed in a panel of mammalian cell lines. Cancer cells require more iron than normal cells in order to sustain fast proliferation rate. Therefore, compounds that interfere with intracellular iron availability display antiproliferative activity.^12 Indeed iron chelation and prochelation strategies could provide new therapeutic avenues in anticancer drug discovery.^4
(§2) Cancer cell lines of different origin were selected (ovarian A2780, breast MDAMB-231, colon Caco-2, and lung A549), and a normal cell line (MRC-5, lung fibroblasts) was selected as a comparison.
(§3) Because the colorimetric MTT reagent is one of the compounds being tested in this panel, the reduction of resazurin to brightly fluorescent resorufin was chosen as a readout for the assessment of antiproliferative activity.

MDA-MB-231 (Breast) = assay: Antiproliferative activity, resazurin readout, MDA-MB-231; type: cell-based, human; details: 72 h incubation, 0.032-100 μM, mean ± SDM, n = 3
Experimental: as §1, §2, §3

Caco-2 (Colon) = assay: Antiproliferative activity, resazurin readout, Caco-2; type: cell-based, human; details: 72 h incubation, 0.032-100 μM, mean ± SDM, n = 3
Experimental: as §1, §2, §3

A549 (Lung) = assay: Antiproliferative activity, resazurin readout, A549; type: cell-based, human; details: 72 h incubation, 0.032-100 μM, mean ± SDM, n = 3
Experimental: as §1, §2, §3

MRC-5 (Normal lung) = assay: Antiproliferative activity, resazurin readout, MRC-5 normal lung fibroblasts; type: cell-based, human; details: 72 h incubation, 0.032-100 μM, mean ± SDM, n = 3
Experimental: as §1, §2, §3

[2] = Stability in fetal bovine serum monitored by HPLC; type: in vitro ADME; details: 24 h
Experimental: FIGS. 5A and 5B depict the assessment of stability of the tetrazolium-based prochelators in fetal bovine serum (FBS) for a period of 24 h.
The stability of exemplary tetrazolium compounds was tested in fetal bovine serum and monitored by HPLC analysis.

[3] = system: panel of mammalian cell lines; assay: Antiproliferative activity across the panel of cell lines; type: cell-based, human; details: 72 h, tested cell lines
Experimental: as §1, §2, §3

[4] = system: A2780 ovarian cancer cells; assay: Effect of iron supplementation on toxicity, LIVE/DEAD stain, flow cytometry; type: cell-based, human; details: compounds 40 μM with or without ferric ammonium citrate 50 μM or holo-transferrin 50 μM, 48 h
Experimental: FIGS. 6A-6B depict the effects of iron supplementation on toxicity in A2780 ovarian cancer cells. The percentage of dead cells was determined using the LIVE/DEAD fixable stain as measured by flow cytometry. FIG. 6A depicts the quantification of dead cells after treating in the presence of test compounds (40 μM) with or without ferric ammonium citrate (FAC, 50 μM) for 48 h. FIG. 6B depicts the quantification of dead cells after treating in the presence of test compounds (40 μM) with or without holo-transferrin (holo-TF, 50 μM) for 48 h. Experiments were conducted in triplicate and the values shown are averages ±standard deviation. **p<0.01, ***p<0.001, ****p<0.0001.
The biological activity of the tetrazolium and formazan compounds was investigated in A2780 cells, in which they presented the highest antiproliferative activity. In particular, experiments were performed to confirm that the antiproliferative activity of these compounds is associated with the availability of intracellular iron.

[5] = Fe(II) coordination in buffered aqueous solution (optical absorption changes); type: physicochemical; details: absorption 500-800 nm
Experimental: These two compounds were retained in the experiments as controls.
The tetrazolium salts (FIGS. 4A-4B) were synthesized from the formazans by the process outlined in FIG. 4C, which included oxidation with N-bromo-succinimide. For structures featuring a 2-hydroxyphenyl group, the oxidation was carried out on methoxyphenyl precursors and followed by a demethylation step in the presence of BBr3. The tetrazolium compounds were isolated as bromide salts.

Compound | Ered vs. NHE (peak potential Ep) [1] | IC50 (A2780 (Ovary)) | IC50 (MDA-MB-231 (Breast)) | IC50 (Caco-2 (Colon)) | IC50 (A549 (Lung)) | IC50 (MRC-5 (Normal lung)) | Antiproliferative activity / toxicity in the cell panel, in words [3] | also measured
[Br-].c1ccc(-c2nn(-c3nc4ccccc4s3)[n+](-c3ccccc3)n2)cc1 [1b] | 207 mV | 23 ± 3 µM | 21 ± 2 µM | 40 ± 3 µM | 41 ± 3 µM | 97 ± 10 µM | moderate antiproliferative activities | Stability in serum [2]: significant degradation
[Br-].c1ccc(-c2nn(-c3nccc4ccccc34)[n+](-c3ccccc3)n2)cc1 [IQT] |  | 0.5 ± 0.1 µM |  |  |  | 14 ± 2 µM |  | IC50 values in A2780 cell lines, in words (A2780 (Ovary)): sub-micromolar
[Br-].c1ccc(-n2nc(-c3ccccn3)n[n+]2-c2ccccc2)cc1 [6b] | −241 mV | 74 ± 4 µM | > 100 µM | > 100 µM | > 100 µM | > 100 µM | low toxicity | Effect of iron supplementation on cell death [4]: not altered by iron supplementation
[Br-].c1ccc(-c2nn(-c3ccccn3)[n+](-c3ccccc3)n2)cc1 [2b] | −130 mV | 16 ± 3 µM | 16 ± 2 µM | 13 ± 2 µM | 17 ± 2 µM | > 100 µM | promising antiproliferative activities | Effect of iron supplementation on cell death [4]: could be rescued by iron supplementation
Cc1nc(N=NC(=NNc2ccccc2)c2ccccc2)sc1C [MTF, reference compound] |  |  |  |  |  |  |  | Iron binding [5]: coordinate Fe(II)
c1ccc(NN=C(N=Nc2ccc3ccccc3n2)c2ccccc2)cc1 [QF] |  | 14 ± 2 µM | 7 ± 2 µM |  |  | 89 ± 9 µM | sub-micromolar or low-micromolar | 
c1ccc(N=NC(=NNc2ccccc2)c2ccccn2)cc1 [6a] |  |  |  |  |  |  |  | Iron binding [5]: did not show any indication of iron binding
Oc1ccccc1-c1nn(-c2ccccn2)[n+](-c2ccccc2)n1.[Br-] [4b] | −102 mV | 12 ± 3 µM | 17 ± 2 µM | 29 ± 3 µM | 28 ± 4 µM | > 100 µM | promising antiproliferative activities | Effect of iron supplementation on cell death [4]: could be rescued by iron supplementation
c1ccc(NN=C(N=Nc2ncc3ccccc3n2)c2ccccc2)cc1 [QZF] |  | 0.6 ± 0.1 µM | 1.8 ± 0.5 µM |  |  | 4.2 ± 0.3 µM | sub-micromolar or low-micromolar | 
Oc1ccccc1C(N=Nc1ccccc1)=NNc1ccccc1 [7a] |  |  |  |  |  |  |  | Iron binding [5]: did not show any indication of iron binding
Oc1ccccc1-n1nc(-c2ccccc2)n[n+]1-c1ccccc1.[Br-] [3b] | −328 mV | > 100 µM | > 100 µM | > 100 µM | > 100 µM | > 100 µM | low cytotoxicity | 
Oc1ccccc1-n1nc(-c2ccccn2)n[n+]1-c1ccccc1.[Br-] [5b] | −380 mV | 90 ± 10 µM | > 100 µM | > 100 µM | > 100 µM | > 100 µM | low cytotoxicity | 
c1ccc(NN=C(N=Nc2nccc3ccccc23)c2ccccc2)cc1 [IQF] |  | 0.7 ± 0.1 µM | 1.4 ± 0.5 µM |  |  |  | sub-micromolar or low-micromolar | 
c1ccc(NN=C(N=Nc2cnc3ccccc3n2)c2ccccc2)cc1 [QXF] |  | 9 ± 2 µM | 22 ± 3 µM |  |  | 11 ± 2 µM | sub-micromolar or low-micromolar | 
Cc1nc(-[n+]2nc(-c3ccccc3)nn2-c2ccccc2)sc1C.[Br-] [MTT, reference compound] | 94 mV | 45 ± 9 µM | 48 ± 7 µM | 92 ± 7 µM | 44 ± 9 µM | 32 ± 5 µM | moderate antiproliferative activities | Stability in serum [2]: significant degradation
[Br-].c1ccc(-c2nn(-c3ccc4ccccc4n3)[n+](-c3ccccc3)n2)cc1 [QT] |  | 0.8 ± 0.1 µM | 0.3 ± 0.1 µM |  |  | 3.5 ± 0.8 µM |  | IC50 values in A2780 cell lines, in words (A2780 (Ovary)): sub-micromolar
O=C(O)c1ccc(-n2nc(-c3ccccc3O)nc2-c2ccccc2O)cc1 [DFX, deferasirox, reference compound] |  |  |  |  |  |  |  | IC50 (A2780 (Ovary); Homo sapiens, A2780): 15 ± 0.5 µM; IC50 (MDA-MB-231 (Breast); Homo sapiens, MDA-MB-231): 17 ± 1 µM; IC50 (Caco-2 (Colon); Homo sapiens, Caco-2): 67 ± 2 µM; IC50 (A549 (Lung); Homo sapiens, A549): 21 ± 3 µM; IC50 (MRC-5 (Normal lung); Homo sapiens, MRC5): > 100 µM
c1ccc(-c2nn(-c3cnc4ccccc4n3)[n+](-c3ccccc3)n2)cc1 [QXT] |  | 19 ± 2 µM | 26 ± 3 µM |  |  | 45 ± 8 µM |  | 
Oc1ccccc1-c1nn(-c2ccccc2)[n+](-c2ccccc2)n1.[Br-] [7b] | −187 mV | 74 ± 7 µM | > 100 µM | > 100 µM | > 100 µM | > 100 µM | low toxicity | 
